Assay type in all cases: biochemical, A. fumigatus
One assay has as its target T1, recombinant Asp f2 (Aspergillus fumigatus, UniProt P79017).
T1 construct: region fused to Asp f2 residues 32-310 (codon optimized for expression in E. coli); Trx-SMT3 N-terminal linker (thioredoxin, His6 tags, SMT3) (N, cleaved yes); made in house; host or cells: Escherichia coli
Particulars: for effect of protease inhibitors on proteolytic activity of recombinant Asp f2: 50 μM inhibitor, FluHSA2 substrate. As to the method:
(§1) A novel bead-based assay was developed for detecting Asp f2 proteolytic activity. […] Cyanogen bromide (CNBr)-activated sepharose beads were swelled in ice-cold HCl (1 mM). Beads (1.0 g) were incubated with 3.0 mg of 5D7A1 in Coupling Buffer (NaHCO3, 0.1 M and NaCl, 0.5 M, pH 8.3-8.5) and rotated for two hours at 22° C. or for 16 hours at 4° C. Beads were blocked with 0.1 M ethanolamine, pH 8.0, then washed with buffers of alternating pH (first with Coupling Buffer, pH 8.5, then with a low pH buffer (sodium acetate, 0.1 M, NaCl, 0.5 M, pH 4.0)). These dual washes were repeated four times. Lastly, beads were resuspended in ammonium bicarbonate (100 mM), lyophilized and stored at 4° C.
(§2) FluHSA2 comprises the peptide of SEQ ID NO:5 conjugated to 5-Fam at the alpha-amino group of the threonine at the N-terminus of the peptide and to DABCYL at the epsilon amino group of the lysine side chain at the C-terminus of the peptide. Upon excitation, the DABCYL suppresses the fluorescence emission of the 5-Fam labeled peptides when the peptides are not cleaved and the fluorescent label and DABCYL remain close together. However, when the peptide is cleaved by Asp f2, the fluorescent label and DABCYL are separated and the fluorescent label emits light energy upon excitation. For each replicate (including negative controls), 100 μL of the antibody coupled bead suspension was transferred into 0.5 mL reaction buffer (FluHSA2 (FIG. 4-5; SEQ ID NO: 5), […] sodium phosphate, 25 mM, NaCl, 100 mM, pH 7.2. Tubes were incubated in the dark for two hours at 37° C. or for 16 hours at 22° C. on a rotary shaker at 250 rpm. Fluorescence was measured at Excitation (Ex) 485 nm/Emission (Em) 535 nm in a black 96-well micro titer plate.
The fusion protein comprised an N-terminal linker (Trx-SMT3 N-terminal linker) region fused to Asp f2 residues 32-310 (codon optimized for expression in E. coli; FIG. 14) via a Ubiquitin-like-specific protease 1 (ULP1) cleavage site located between SMT3 and Asp f2. The Trx-SMT3 N-terminal linker contained the following from N- to C-terminus: thioredoxin (Trx)-glycine-serine-linker-His6-tag-linkers-another His6-tag-SMT3. Trx was added to improve solubility of the construct and a yeast SUMO (Smt3) was added to help enhance expression and promote solubility of Asp f2. Following purification using a His6-tag specific nickel-NTA column, Asp f2 was activated by cleaving the Trx-SMT3 N-terminal linker off using UPL1.
(§3) Diethylpyrocarbonate (DEPC) derivatization of histidines results in the chemical modification of histidines in proteins and is used to study the importance of histidyl residues in enzymes. Using the materials and methods described in Example 1, anti-Asp f2 (5D7A1)-bound beads were incubated with native or recombinant Asp f2 in the presence or absence of DEPC (30 μM) and incubated for one hour at 22° C. prior to reaction with FluHSA2. Samples were then incubated with 10 μM of FluHSA2 for 16 hours at 22° C. and fluorescence was measured as described above. Cleavage of FluHSA2 was detected in the presence or absence of DEPC to test the proteolytic activity of native and recombinant Asp f2.
Anti-Asp f2 (5D7A1)-bound beads were incubated with native or recombinant Asp f2 in the presence or absence of 0.5 mM zinc chloride or 50 μM of various inhibitors. Samples were incubated with FluHSA2 and fluorescence was measured as described above.

Assay [1] deals with T2, native Asp f2 (Aspergillus fumigatus, UniProt P79017).
T2 construct: beads were incubated with native or recombinant Asp f2; endogenous in cells; host or cells: Aspergillus fumigatus (preparation of the native protein not described for this assay)
T2 sequence (P79017 32-310): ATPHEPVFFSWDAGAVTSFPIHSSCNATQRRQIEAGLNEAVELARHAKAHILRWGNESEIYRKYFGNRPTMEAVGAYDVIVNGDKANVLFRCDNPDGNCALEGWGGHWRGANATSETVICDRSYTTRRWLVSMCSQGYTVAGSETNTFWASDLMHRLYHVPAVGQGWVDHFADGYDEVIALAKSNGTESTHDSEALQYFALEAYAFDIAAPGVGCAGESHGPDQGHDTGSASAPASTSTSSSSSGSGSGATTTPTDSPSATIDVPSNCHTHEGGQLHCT
Particulars: for effect of protease inhibitors on proteolytic activity of native Asp f2: 50 μM inhibitor, FluHSA2 substrate. As to the method:
as §1, §2, §3
Anti-Asp f2 (5D7A1)-bound beads were incubated with native or recombinant Asp f2 in the presence or absence of 0.5 mM zinc chloride or 50 μM of various inhibitors. Samples were incubated with FluHSA2 and fluorescence was measured as described above. […] Various Asp f2 histidine residues, including those located in the ^186HRLYH motif, were mutated to alanine (FIG. 12; H186A and H190A are located in the HRLYH motif), and mutant or wild-type Asp f2 was incubated with anti-Asp f2 (5D7A1)-bound beads as described above, followed by incubation with FluHSA2.

The target of assay [2] is T2, native Asp f2. Briefly: Cleavage of fluorogenic substrates by bead-bound native Asp f2. As to the method: Cleavage specificity of the novel FluHSA peptide was tested using Asp f2 and another Aspergillus protein, Asp f3. CNBr-activated sepharose beads were prepared as described in Example 1 and incubated with either the anti-Asp f2 monoclonal antibody 5D7A1 or an anti-Asp f3 rabbit polyclonal antibody. Anti-Asp f2-immobilized beads were incubated with native Asp f2 and anti-Asp f3-immobilized beads were incubated with native Asp f3. Samples were incubated with FluHSA2 (10 μM) for 16 hours at 22° C. Fluorescence was measured at Ex 485 nm/Em 535 nm in a black 96-well micro titer plate as described above.
The cleavage products of FluHSA2 after reaction with native Asp f2 were investigated by mass spectrometric analysis (MALDI spectra) (FIG. 5). Cleavage by Asp f2 occurred in the C-terminal linear tail section of the peptide resulting in at least 5 cleavage products (FIG. 5).
Peptides other than FluHSA2 were tested for cleavage by Asp f2.

[3] abbreviates: DEPC 30 μM, one hour at 22° C. before FluHSA2 10 μM, 16 hours at 22° C.

“Also recorded” adds a separate entry of the source. Positions of bridges follow the written chain, without caps; N, C: chain ends. Non-standard residues stand in square brackets, D forms with d. Residues, ends and D or L forms follow the SMILES beside them. No end group written: not given here. *: point of attachment. 5FAM = O=C1OC2(c3ccc(O)cc3Oc3cc(O)ccc32)c2ccc(C(=O)*)cc21; DABCYL = 4-(dimethylaminoazo)benzene-4-carboxy; Sta = CC(C)C[C@H](N)[C@@H](O)CC(=O)O; Isovaleryl = CC(C)CC(=O)*

T1 sequence (P79017 32-310): as above

On to `CC(C)CC(=O)N[C@H](C(=O)N[C@H](C(=O)N[C@@H](CC(C)C)[C@@H](O)CC(=O)N[C@@H](C)C(=O)N[C@@H](CC(C)C)[C@@H](O)CC(=O)O)C(C)C)C(C)C` [pepstatin A] (Isovaleryl-VV[Sta]A[Sta]-OH), for which the “effect of protease inhibitors on proteolytic activity of recombinant Asp f2” value at recombinant Asp f2 was “did not inhibit”. On native Asp f2 [1], the “effect of protease inhibitors on proteolytic activity of native Asp f2” value (“effect of protease inhibitors … of native Asp f2” for short) is “did not inhibit”.
For the molecule collagen, the “degradation of fluorogenic protein substrate by native Asp f2” value at native Asp f2 [2] (15 μg/mL, Asp f2 enriched on 5D7A1 beads) is “capable of degrading”.
As for `NC(=O)CI` [IAA, iodoacetamide], the “effect of protease inhibitors on proteolytic activity of recombinant Asp f2” value at recombinant Asp f2 is reported as “did not inhibit”. Moreover, the “effect of protease inhibitors … of native Asp f2” value at native Asp f2 [1] is reported as “did not inhibit”.
Consider “[5-Fam]-TKCATESAVNRRPCFSALK-[DABCYL] (5FAM-TKCATESAVNRRPCFSALK(DABCYL); disulfide 3-14 (inferred)) [FluHSA2]”, for which the “number of cleavage products after reaction with native Asp f2 (MALDI)” value with native Asp f2 [2] is listed as “at least 5”. For the same molecule, the “specificity of cleavage by Asp f2 compared with Asp f3” value with native Asp f2 [2] (FluHSA2 10 μM, 16 hours at 22° C.) is “high specificity for cleavage by Asp f2”. Also, in the assay with native Asp f2 [2] (sites near the C-terminus), the “number of cleavage sites on reaction with native Asp f2 (MALDI)” value was “four”.
`CCOC(=O)OC(=O)OCC` [DEPC, Diethylpyrocarbonate]: on recombinant Asp f2 (setting [3]), the “proteolytic activity of recombinant Asp f2 (cleavage of FluHSA2) in the presence of DEPC” value was “inhibited; also recorded: inactive in the presence of DEPC”. In addition, at native Asp f2 [1] (setting [3]), the “proteolytic activity of native Asp f2 (cleavage of FluHSA2) in the presence of DEPC” value was “inhibited; also recorded: inactive in the presence of DEPC”.
Turning to aprotinin, the “effect of protease inhibitors on proteolytic activity of recombinant Asp f2” value at recombinant Asp f2 is on record as “did not inhibit”. The “effect of protease inhibitors … of native Asp f2” value at native Asp f2 [1] is “did not inhibit”.
As to soybean trypsin inhibitor [SBTI], at recombinant Asp f2, the “effect of protease inhibitors on proteolytic activity of recombinant Asp f2” value was “did not inhibit”. At native Asp f2 [1], the “effect of protease inhibitors … of native Asp f2” value is recorded as “did not inhibit”.
With `c1cnc2c(c1)ccc1cccnc12` [1-10-phenanthroline], the “effect of protease inhibitors on proteolytic activity of recombinant Asp f2” value on recombinant Asp f2 is recorded as “suppressed”. Also, the “effect of protease inhibitors … of native Asp f2” value at native Asp f2 [1] is recorded as “suppressed”.
`c1ccc(CN(CCN(Cc2ccccn2)Cc2ccccn2)Cc2ccccn2)nc1` [TPEN, N,N,N′,N′-tetrakis (2-pyridylmethyl) ethylenediamine]: the “effect of protease inhibitors on proteolytic activity of recombinant Asp f2” value at recombinant Asp f2 is “suppressed”. Besides, on native Asp f2 [1], the “effect of protease inhibitors … of native Asp f2” value was “suppressed”.
With `O=C(O)CN(CCN(CC(=O)O)CC(=O)O)CC(=O)O` [EDTA, ethylenediaminetetraacetic acid], the “effect of protease inhibitors on proteolytic activity of recombinant Asp f2” value at recombinant Asp f2 is “suppressed”. Besides, the “effect of protease inhibitors … of native Asp f2” value at native Asp f2 [1] is reported as “suppressed”.
`O=S(=O)(F)Cc1ccccc1` [PMSF, phenylmethanesulfonylfluoride]: the “effect of protease inhibitors on proteolytic activity of recombinant Asp f2” value at recombinant Asp f2 is “did not inhibit”. Further, the “effect of protease inhibitors … of native Asp f2” value at native Asp f2 [1] is reported as “did not inhibit”.

Source of the values: patent publication US11726087B2, “Methods, compositions, and kits for detection of aspergillosis” (priority 2013, dated 2023).
